# Reference: patent US5374634A, “Pyridine derivatives” (Kyowa Hakko Kogyo Co., Ltd., priority 1992, dated 1994)
# What was measured:
# [1] = test system: PTH-induced calcium release (i.e. bone resorption) from bones (calvaria); test: Bone resorption-inhibiting effect: inhibition of PTH-induced calcium release from cultured calvaria; assay type: cell-based, dd mice (5- to 6-day-old); conditions: mouse half calvaria culture; PTH 1×10^-8 M; calcium in medium at 96 hours; test compound 3×10^-6, 1×10^-5, 3×10^-5 M
# Method: The bone resorption-inhibiting effect of the compounds of the present invention is illustrated by the following experiment.
# Calvaria were aseptically removed from 5- to 6-day-old dd mice, washed with Dulbecco's modified phosphate-buffered saline not containing calcium and magnesium (product of Gibco Oriental Co.), and cut along the sagittal suture into left and right halves. Each half calvarium was cultured in 1.5 ml medium consisting of Dulbecco's modified Eagle medium (high glucose) (product of Gibco Oriental Co.) supplemented with 15% heat-inactivated (at 56° C. for 20 minutes) horse serum, 2.5% heat-inactivated fetal bovine serum, plus 1% antibiotic-antimycotic liquid. The test compound was dissolved in dimethylsulfoxide, and a 10 μl portion of the solution was added to the culture to the final concentrations of 3×10^-6 M, 1×10^-5 M and 3×10^-5 M. PTH (parathyroid hormone) was dissolved in 0.15M sodium chloride (pH 3), and a 3 μl-portion of the resulting solution was added to the culture to the final concentration of 1×10^-8 M. Cultures were incubated at 37° C. in a water-saturated atmosphere consisting of 5% CO2 and 95% air. Typically, cultures were maintained for 96 hours and the media were changed at 48 hours. The test compound and PTH which had been processed in the same manner as described above were added thereto. In order to investigate the action of the test compound on PTH-induced calcium release (i.e. bone resorption) from bones, there were prepared 3 groups: control group, PTH treated group (1×10^-8 M) and test compound- and PTH-treated group (3×10^-6 M, 1×10^-5 M, 3×10^-5 M). Bone resorption was assessed by measuring the accumulation of calcium in the culture media collected at 96 hours of culturing. The total calcium concentrations were determined using Calcium C-Test Wako (product of Wako). The inhibition rate was calculated therefrom according to the equation given below and 50% inhibitory concentration (IC50) was determined. [formula] CO : Total calcium concentration in the culture free from both PTH and test compound
# Cp : Total calcium concentration in the culture treated with PTH only
# CD : Total calcium concentration in the culture treated with both PTH and test compound.
# dd-strain male mice = test: Acute toxicity test (oral, minimum lethal dose); assay type: in vivo; conditions: mortality observed for 7 days
# Method: A test compound was orally administered to three dd-strain male mice weighing 20±1 g. The minimum lethal dose (MLD) was determined by observing the mortality for 7 days after the administration.
IC50 [1],Compound,MLD (minimum lethal dose) (dd-strain male mice)
8.9 µM,"O=C(c1ccncc1C(c1ccc(O)cc1)c1ccc(O)cc1)N1CCN(c2ccccc2O)CC1 [Compound 19, 1-(2-Hydroxyphenyl)-4-{[3-bis(4-hydroxyphenyl)methyl]isonicotinyl}piperazine]",–
75.6 µM,"O=C(c1ccncc1C(c1ccc(O)cc1)c1ccc(O)cc1)N1CCN(c2ccccc2)CC1 [Compound 20, 1-Phenyl-4-{[3-bis(4-hydroxyphenyl)methyl]isonicotinyl}piperazine]",–
18.6 µM,"O=C(NC12CC3CC(CC1C3)C2)c1ccncc1C(c1ccc(O)cc1)c1ccc(O)cc1 [Compound 9, N-(Tricyclo[3.3.1.0^3,7]non-3-yl)-3-[bis(4-hydroxyphenyl)methyl]-4-pyridinecarboxamide]",–
–,"COc1ccc(C(c2ccc(OC)cc2)c2cnccc2C(=O)N2CCN(c3ccccc3Cl)CC2)cc1 [Compound 6, 1-(2-Chlorophenyl)-4-{[3-bis(4-methoxyphenyl)methyl]-isonicotinyl}piperazine]",> 300 mg/kg
19.2 µM,O=C(c1ccncc1C(c1ccc(O)cc1)c1ccc(O)cc1)N1CCCCC1 [Compound 10],–
20.3 µM,"O=C(NC12CC3CC(CC(C3)C1)C2)c1ccncc1C(c1ccc(O)cc1)c1ccc(O)cc1 [Compound 11, N-(Tricyclo[3.3.1.1^3,7]dec-1-yl)-3-[bis(4-hydroxyphenyl)methyl]-4-pyridinecarboxamide]",–
24.9 µM,"O=C(c1ccncc1C(c1ccc(O)cc1)c1ccc(O)cc1)N1CCN(c2ccc(Cl)cc2)CC1 [Compound 17, 1-(4-Chlorophenyl)-4-{[3-bis(4-hydroxyphenyl)methyl]isonicotinyl}piperazine]",–
7.1 µM,"O=C(c1ccncc1C(c1ccc(O)cc1)c1ccc(O)cc1)N1CCN(c2cccc(C(F)(F)F)c2)CC1 [Compound 16, 1-(3-Trifluoromethylphenyl)-4-{[3-bis(4-hydroxyphenyl)methyl]isonicotinyl}piperazine]",–
8.5 µM,"Cc1cccc(N2CCN(C(=O)c3ccncc3C(c3ccc(O)cc3)c3ccc(O)cc3)CC2)c1 [Compound 21, 1-(3-Methylphenyl)-4-{[3-bis(4-hydroxyphenyl)methyl]isonicotinyl}piperazine]",–
75.6 µM,"O=C(Nc1ccc(O)cc1)c1ccncc1C(c1ccc(O)cc1)c1ccc(O)cc1 [Compound 15, N-(4-Hydroxyphenyl)-3-[bis(4-hydroxyphenyl)methyl]-4-pyridinecarboxamide]",–
19.6 µM,"O=C(c1ccncc1C(c1ccc(O)cc1)c1ccc(O)cc1)N1CCN(c2ncccn2)CC1 [Compound 22, 1-(2-Pyrimidyl)-4-{[3-bis(4-hydroxyphenyl)methyl]isonicotinyl}piperazine]",–
11.6 µM,"O=C(NC1CCCCCCC1)c1ccncc1C(c1ccc(O)cc1)c1ccc(O)cc1 [Compound 12, N-Cyclooctyl-3-[bis(4-hydroxyphenyl)methyl]-4-pyridinecarboxamide]",–

Compound,IC50 [1],MLD (minimum lethal dose) (dd-strain male mice)
"O=C(c1ccncc1C(c1ccc(O)cc1)c1ccc(O)cc1)N1CCN(c2cccc(Cl)c2)CC1 [Compound 18, 1-(3-Chlorophenyl)-4-{[3-bis(4-hydroxyphenyl)methyl]isonicotinyl}piperazine]",14 µM,> 300 mg/kg
"O=C(c1ccncc1C(c1ccc(O)cc1)c1ccc(O)cc1)N1CCN(c2ccccc2Cl)CC1 [Compound 13, 1-(2-Chlorophenyl)-4-{[3--bis(4,hydroxyphenyl)methyl]isonicotinyl}piperazine]",6 µM,> 1000 mg/kg
